This is an account of results in patent US11827636B2, “Degradation of cyclin-dependent kinase 8 (CDK8) by conjugation of CDK8 inhibitors with E3 ligase ligand and methods of use” (DANA-FARBER CANCER INSTITUTE, INC., priority 2016, dated 2023).

Common to all, as to type: cell-based
In assay [1] the test system is pS727-STAT1. The assay can be described thus: Western blot, pS727-STAT1 level in wild-type (WT) Molt4 cells. Conditions: 1 μM compound, 6 hours. The protocol:
(§1) Cells are treated with a control or a bifunctional compound of the application alone or in combination with an agent that blocks proteasomal degradation at a single concentration or various concentrations. After treatment, cells are washed and harvested by resuspending in buffer and lysed on ice 30 minutes. Lysates are then cleared by centrifugation. Samples are boiled and equal amount of protein is loaded onto polyacrylamide gel. The gel is transferred to nitrocellulose and blotted for CDK8, mTOR, STAT1 serine 727 phosphorylation or actin.
(§2) The indicated cells were treated with vehicle control or the bifunctional compounds of the application, at a single or various concentrations, alone or in combination with bortezomib, an agent that blocks proteasomal degradation. After treatment, cells were washed with PBS and lysed in lysis buffer and then cleared by centrifugation. Protein concentrations were determined by BCA assay, and equal amounts of protein were loaded onto gels to perform Western blots. Gels were transferred to nitrocellulose, blocked with 5% milk in TBS-T, and probed for CDK8, mTOR, S727-STAT1, and Actin. Antibody binding was detected using near-infrared-dye-conjugated secondary antibodies.
For orientation: In western blotting, separated proteins are transferred to a membrane and probed.

Assay [2] deals with T1, CDK8 (Homo sapiens, UniProt P49336).
T1 construct: endogenous in cells; host or cells: wild-type Molt4 cells
T1 sequence (P49336 whole entry): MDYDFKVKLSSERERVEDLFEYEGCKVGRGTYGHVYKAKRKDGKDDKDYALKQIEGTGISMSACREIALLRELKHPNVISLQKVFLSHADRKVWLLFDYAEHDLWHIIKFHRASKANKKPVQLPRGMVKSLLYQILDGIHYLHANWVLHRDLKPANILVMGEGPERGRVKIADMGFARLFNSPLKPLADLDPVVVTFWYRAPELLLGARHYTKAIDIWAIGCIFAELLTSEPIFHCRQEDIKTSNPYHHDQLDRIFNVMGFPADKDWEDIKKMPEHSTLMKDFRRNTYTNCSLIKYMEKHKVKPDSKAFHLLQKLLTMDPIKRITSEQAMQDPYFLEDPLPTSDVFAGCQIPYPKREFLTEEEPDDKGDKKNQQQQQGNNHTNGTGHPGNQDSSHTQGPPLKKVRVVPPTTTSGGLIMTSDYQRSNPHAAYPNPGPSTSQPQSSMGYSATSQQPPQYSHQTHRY
T1 sequence (P24863 whole entry partner): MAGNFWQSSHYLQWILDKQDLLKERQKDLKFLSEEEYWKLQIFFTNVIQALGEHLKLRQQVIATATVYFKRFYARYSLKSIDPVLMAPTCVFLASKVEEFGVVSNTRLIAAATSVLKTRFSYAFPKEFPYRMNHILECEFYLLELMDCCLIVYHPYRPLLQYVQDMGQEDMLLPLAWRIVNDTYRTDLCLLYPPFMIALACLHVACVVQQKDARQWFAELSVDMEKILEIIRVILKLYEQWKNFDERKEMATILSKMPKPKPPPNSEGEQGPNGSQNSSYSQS
T1 sequence (Q96SW2 whole entry partner): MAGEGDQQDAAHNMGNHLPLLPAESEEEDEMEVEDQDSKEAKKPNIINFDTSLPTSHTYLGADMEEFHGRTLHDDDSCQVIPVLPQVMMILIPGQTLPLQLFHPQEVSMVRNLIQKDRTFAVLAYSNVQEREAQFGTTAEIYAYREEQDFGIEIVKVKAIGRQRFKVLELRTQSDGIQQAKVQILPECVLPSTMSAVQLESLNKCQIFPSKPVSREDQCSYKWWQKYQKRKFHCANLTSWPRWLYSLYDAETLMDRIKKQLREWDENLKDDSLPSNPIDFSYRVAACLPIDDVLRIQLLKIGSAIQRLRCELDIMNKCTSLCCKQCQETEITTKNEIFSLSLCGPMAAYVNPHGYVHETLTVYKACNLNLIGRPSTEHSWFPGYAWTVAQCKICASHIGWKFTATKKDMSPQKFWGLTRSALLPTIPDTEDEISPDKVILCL
The assay can be described thus: Enzyme degradation assay (western blot), CDK8 level in wild-type (WT) Molt4 cells. Conditions: 1 μM compound, 6 hours. The method, then:
as §1, §2

Assay [3] concerns the target T2, CDK8 (Mus musculus, UniProt Q8R3L8).
T2 construct: levels of CDK8, pS727-STAT1, and actin in MC38 colorectal cancer cells; endogenous in cells; host or cells: MC38 colorectal cancer cells
T2 sequence (Q8R3L8 1-464): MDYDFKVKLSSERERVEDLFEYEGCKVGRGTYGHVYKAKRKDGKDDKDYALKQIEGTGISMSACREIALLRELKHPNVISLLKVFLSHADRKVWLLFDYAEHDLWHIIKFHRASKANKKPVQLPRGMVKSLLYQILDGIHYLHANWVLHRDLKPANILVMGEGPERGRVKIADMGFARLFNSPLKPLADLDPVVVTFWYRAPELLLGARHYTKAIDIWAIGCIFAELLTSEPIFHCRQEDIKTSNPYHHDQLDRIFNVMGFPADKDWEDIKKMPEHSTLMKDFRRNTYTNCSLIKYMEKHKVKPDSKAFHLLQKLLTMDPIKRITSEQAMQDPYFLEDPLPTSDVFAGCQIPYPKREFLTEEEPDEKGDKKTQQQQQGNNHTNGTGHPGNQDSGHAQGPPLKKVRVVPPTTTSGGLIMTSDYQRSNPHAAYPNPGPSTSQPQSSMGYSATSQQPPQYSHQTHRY
T2 sequence (Q62447 1-283 partner): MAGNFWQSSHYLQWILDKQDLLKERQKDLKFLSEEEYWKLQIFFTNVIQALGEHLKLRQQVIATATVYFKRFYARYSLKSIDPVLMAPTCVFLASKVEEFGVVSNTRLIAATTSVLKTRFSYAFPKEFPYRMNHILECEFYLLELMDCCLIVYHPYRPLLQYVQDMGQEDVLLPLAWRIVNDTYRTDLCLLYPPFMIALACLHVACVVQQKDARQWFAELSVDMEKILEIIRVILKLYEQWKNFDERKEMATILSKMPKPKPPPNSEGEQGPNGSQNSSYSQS
T2 sequence (Q8C7D2 1-445 partner): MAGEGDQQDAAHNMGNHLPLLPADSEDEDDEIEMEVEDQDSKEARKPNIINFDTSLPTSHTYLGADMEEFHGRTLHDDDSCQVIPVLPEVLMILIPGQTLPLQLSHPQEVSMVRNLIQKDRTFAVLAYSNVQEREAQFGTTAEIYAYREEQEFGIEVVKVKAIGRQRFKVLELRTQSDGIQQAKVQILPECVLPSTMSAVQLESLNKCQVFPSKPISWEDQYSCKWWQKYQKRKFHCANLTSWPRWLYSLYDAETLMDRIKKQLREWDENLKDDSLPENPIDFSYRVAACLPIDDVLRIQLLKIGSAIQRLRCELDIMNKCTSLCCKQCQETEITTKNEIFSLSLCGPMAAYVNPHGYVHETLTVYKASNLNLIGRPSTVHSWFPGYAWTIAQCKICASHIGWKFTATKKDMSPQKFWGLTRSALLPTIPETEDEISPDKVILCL
Put plainly: Enzyme degradation assay (western blot), CDK8 level in MC38 colorectal cancer cells. Conditions: 6 hours. The method, then: as §1
Cells are treated with a control or a bifunctional compound of the application at various concentrations for a desired period of time. Cells are then lysed in a suitable buffer. Protein concentration may be measured with any appropriate assay known in the art. […] The signals from the label are detected.
The indicated cells were treated with vehicle control or the bifunctional compounds of the application, at a single or various concentrations, alone or in combination with bortezomib, an agent that blocks proteasomal degradation. […] Protein concentrations were determined by BCA assay, and equal amounts of protein were loaded onto gels to perform Western blots. […] Antibody binding was detected using near-infrared-dye-conjugated secondary antibodies. […]

Assay [4] has as its system pS727-STAT1. The assay can be described thus: Western blot, pS727-STAT1 level in MC38 colorectal cancer cells. Conditions: 6 hours. The protocol:
as §1, §2

Setting [5] is: 1 μM compound in combination with 10 nM bortezomib.

Consider `O=C1CCC(N2C(=O)c3cccc(NCCCCn4cc(-c5ccc(-c6cncc(Cl)c6N6CCC7(CCNC7=O)CC6)cc5)cn4)c3C2=O)C(=O)N1` (centres unmarked) [Compound I-6, 4-(4-(4-(4-(5-chloro-4-(1-oxo-2,8-diazaspiro[4.5]decan-8-yl)pyridin-3-yl)phenyl)-1H-pyrazol-1-yl)butylamino)-2-(2,6-dioxopiperidin-3-yl)isoindoline-1,3-dione], for which the “phosphorylation of Ser727-STAT1” value in the assay on pS727-STAT1 [1] was “blocked phosphorylation”. The “degradation of CDK8 (western blot level of CDK8)” value at CDK8 [2] is “efficiently degraded CDK8”.

As for `O=C1CCC(N2C(=O)c3cccc(NCCOCCOCCOCCOCCOCCC(=O)N4CCN(c5ccc(-n6c(=O)ccc7cnc8ccc(-c9ccc%10ccncc%10c9)cc8c76)cc5C(F)(F)F)CC4)c3C2=O)C(=O)N1` (centres unmarked) [Compound I-3, 2-(2,6-dioxopiperidin-3-yl)-4-((18-(4-(4-(9-(isoquinolin-7-yl)-2-oxobenzo[h][1,6]naphthyridin-1(2H)-yl)-2-(trifluoromethyl)phenyl)piperazin-1-yl)-18-oxo-3,6,9,12,15-pentaoxaoctadecyl)amino)isoindoline-1,3-dione], the “phosphorylation of Ser727-STAT1” value in the assay with pS727-STAT1 [1] was “blocked phosphorylation”. In addition, the “degradation of CDK8 when the proteasome is inhibited with bortezomib” value at CDK8 [3] (setting [5]) is “rescued”. In addition, the “degradation of CDK8 (western blot level of CDK8)” value is “efficiently degraded CDK8” at CDK8 [3] (1 μM compound, alone) and “efficiently degraded CDK8” at CDK8 [2]. Further, the “reduction in the level of pSer727-STAT1 when the proteasome is inhibited with bortezomib” value in the assay with pS727-STAT1 [4] (setting [5]) is on record as “rescued”. Besides, the “level of phosphorylation of the CDK8 substrate Ser727-STAT1” value with pS727-STAT1 [4] (1 μM compound, alone) is on record as “lowered the level of phosphorylation”.
